A word on the Ki: it is the equilibrium dissociation constant of an inhibitor or competing ligand from its target. Low values mean a stronger hold on the target, high ones a looser hold on the target.

Experimental findings from US20080139564A1, “SUBSTITUTED PHENYL PROPYL AMINES AS HISTAMINE H3 RECEPTOR AND SEROTONIN TRANSPORTER MODULATORS” (priority 2006, published 2008) are described below.

Like-named read-outs stand apart in the source and are kept apart here.

The target of one assay is T1, human SERT (Homo sapiens, UniProt P31645).
T1 construct: expressed in transfected cells; host or cells: HEK293
T1 sequence (P31645 whole entry): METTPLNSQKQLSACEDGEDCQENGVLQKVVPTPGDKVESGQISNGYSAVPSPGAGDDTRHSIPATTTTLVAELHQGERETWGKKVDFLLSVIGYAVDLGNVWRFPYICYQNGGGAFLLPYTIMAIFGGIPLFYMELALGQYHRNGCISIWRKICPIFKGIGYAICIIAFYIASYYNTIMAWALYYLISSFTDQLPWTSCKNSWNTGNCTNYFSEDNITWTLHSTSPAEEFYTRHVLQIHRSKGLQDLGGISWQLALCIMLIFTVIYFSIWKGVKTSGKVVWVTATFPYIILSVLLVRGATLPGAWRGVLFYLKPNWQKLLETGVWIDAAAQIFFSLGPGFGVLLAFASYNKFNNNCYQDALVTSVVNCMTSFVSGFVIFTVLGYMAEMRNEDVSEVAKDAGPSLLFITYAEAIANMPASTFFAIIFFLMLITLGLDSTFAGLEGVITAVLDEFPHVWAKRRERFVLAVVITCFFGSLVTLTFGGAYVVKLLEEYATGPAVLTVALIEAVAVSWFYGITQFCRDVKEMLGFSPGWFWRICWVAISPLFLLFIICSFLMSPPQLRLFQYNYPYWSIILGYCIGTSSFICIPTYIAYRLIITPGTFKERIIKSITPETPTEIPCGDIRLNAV
The assay can be described thus: Human SERT binding (3H-citalopram displacement, HEK293 membranes). The conditions noted are these: 3H-citalopram 3.1 nM, rt for 1 h. In a few lines: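 HEK293 membranes expressing human SERT incubated with ^3H-citalopram (3.1 nM) for 1 h at rt in 50 mM Tris, 120 mM NaCl, 5 mM KCl, pH 7.4. Nonspecific binding defined with 10 μM fluoxetine. Ki derived from bound radioactivity using the ^3H-citalopram Kd.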

Assay [1] concerns the target T2, human H3 receptor (Homo sapiens, UniProt Q9Y5N1).
T2 construct: expressed in transfected cells
As to the kind of experiment: Cyclic AMP accumulation (β-galactosidase reporter in SK-N-MC cells). The assay is classed as cell-based. As for the experimental part: Sublines of SK-N-MC cells were created that expressed a reporter construct and the human H3 receptor. The reporter gene (β-galactosidase) is under the control of multiple cyclic AMP responsive elements. In 96-well plates, histamine was added directly to the cell media followed 5 min later by an addition of forskolin (5 μM final concentration). When appropriate, antagonists were added 10 min prior to agonist addition. After a 6-h incubation at 37° C., the media was aspirated and the cells washed with 200 μL of phosphate-buffered saline followed by a second aspiration. Cells were lysed with 25 μL 0.1× assay buffer (10 mM Na-phosphate, pH 8, 0.2 mM MgSO4, 0.01 mM MnCl2) and incubated at rt for 10 min. Cells were then incubated for 10 min with 100 μL of 1× assay buffer containing 0.5% Triton and 40 mM β-mercaptoethanol. Color was developed using 25 μL of 1 mg/mL substrate solution (chlorophenolred β-D galactopyranoside; Roche Molecular Biochemicals, Indianapolis, Ind.). Color was quantitated on a microplate reader at absorbance 570 nm. The pA2 values were calculated by Schild regression analysis of the pEC50 values.

Assay [2] concerns the target T2, human H3 receptor. The assay can be described thus: H3 receptor binding (N-[3H]-α-methylhistamine displacement, SK-N-MC cell membranes). The note with it: 0.8 nM N-[3H]-α-methylhistamine, 60 min at 25° C. Put shortly: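 Membranes from SK-N-MC cells stably expressing cloned human H3 receptor, in 50 mM Tris/5 mM EDTA pH 7.4, incubated with 0.8 nM N-[³H]-α-methylhistamine ± compound for 60 min at 25° C., then filtered. Nonspecific binding defined with 10 μM histamine.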

A further assay has as its target T3, Rat SERT (Rattus norvegicus, UniProt P31652).
T3 construct: A rat brain without cerebellum (Zivic Laboratories, Inc.—Pittsburgh, Pa.) was homogenized; tissue Zivic Laboratories, Inc; host or cells: rat brain without cerebellum
The assay can be described thus: Rat brain SERT binding ([3H]-Citalopram displacement, rat brain membranes). The note with it: 0.6 nM [3H]-Citalopram, 60 min at 25° C. In a few lines:
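Membranes prepared from rat brain minus cerebellum in Tris pH 8/NaCl/KCl were incubated with 0.6 nM [3H]-citalopram and test compound for 60 min at 25° C. Bound ligand was separated by filtration. Nonspecific binding defined with 100 μM fluoxetine.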

T2 sequence (Q9Y5N1 whole entry): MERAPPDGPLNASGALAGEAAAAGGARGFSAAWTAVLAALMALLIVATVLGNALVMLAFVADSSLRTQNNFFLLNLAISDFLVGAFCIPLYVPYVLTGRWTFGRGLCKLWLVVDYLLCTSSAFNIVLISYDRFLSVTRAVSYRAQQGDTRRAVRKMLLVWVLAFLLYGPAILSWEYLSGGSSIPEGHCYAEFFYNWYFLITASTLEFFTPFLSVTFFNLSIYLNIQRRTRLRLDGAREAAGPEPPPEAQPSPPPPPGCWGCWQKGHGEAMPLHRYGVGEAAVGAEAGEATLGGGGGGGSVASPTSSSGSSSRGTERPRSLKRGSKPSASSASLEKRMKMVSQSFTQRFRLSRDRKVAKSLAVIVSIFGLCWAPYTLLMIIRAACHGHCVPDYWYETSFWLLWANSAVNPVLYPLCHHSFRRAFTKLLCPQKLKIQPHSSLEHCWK
T3 sequence (P31652 whole entry): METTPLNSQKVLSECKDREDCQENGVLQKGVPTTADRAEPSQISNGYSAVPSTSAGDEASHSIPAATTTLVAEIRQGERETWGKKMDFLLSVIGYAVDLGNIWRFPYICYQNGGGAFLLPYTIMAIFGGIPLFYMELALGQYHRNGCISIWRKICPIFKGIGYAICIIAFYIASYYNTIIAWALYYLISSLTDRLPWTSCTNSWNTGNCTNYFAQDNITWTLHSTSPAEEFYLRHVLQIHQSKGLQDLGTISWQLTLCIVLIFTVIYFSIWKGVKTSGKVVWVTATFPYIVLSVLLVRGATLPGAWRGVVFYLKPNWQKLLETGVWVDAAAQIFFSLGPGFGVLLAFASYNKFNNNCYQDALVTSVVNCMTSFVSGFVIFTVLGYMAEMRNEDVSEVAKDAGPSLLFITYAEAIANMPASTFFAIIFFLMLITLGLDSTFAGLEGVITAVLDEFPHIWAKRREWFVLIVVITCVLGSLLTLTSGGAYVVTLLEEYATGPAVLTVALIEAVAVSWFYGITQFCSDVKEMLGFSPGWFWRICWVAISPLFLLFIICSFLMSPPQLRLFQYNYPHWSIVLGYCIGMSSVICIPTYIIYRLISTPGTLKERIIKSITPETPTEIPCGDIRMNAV

As to `CC(C)N1CCN(Cc2ccc(C(CCN(C)C)Oc3ccc(Cl)c(Cl)c3)cc2)CC1` (stereo not drawn) [Example 47, {3-(3,4-Dichloro-phenoxy)-3-[4-(4-isopropyl-piperazin-1-ylmethyl)phenyl]-propyl}-dimethyl-amine], the Ki on human SERT is 6 nM; on human H3 receptor [2], 5 nM; on Rat SERT, 6 nM. For the same compound, the Kb at human H3 receptor [1] (read-out: pA2 (converted)) is 11.5 nM.
In the case of `CC(C)N1CCN(Cc2ccc(C(CCN(C)C)Oc3ccccc3)cc2)CC1` (stereo not drawn) [Example 56, {3-[4-(4-Isopropyl-piperazin-1-ylmethyl)-phenyl]-3-phenoxy-propyl}-dimethyl-amine], the values for the Ki on human SERT, at human H3 receptor [2] and on Rat SERT were 133 nM, 1 nM and 14 nM, respectively. Also, the Kb at human H3 receptor [1] (read-out: pA2 (converted)) was 0.977 nM.
For `CN(C)CCC(Oc1ccc(C#CCCN2CCCCC2)cc1)c1ccccc1` (stereo not drawn) [Example 57, Dimethyl-{3-phenyl-3-[4-(4-piperidin-1-yl-but-1-ynyl)-phenoxy]-propyl}-amine], the inhibition constant Ki was found to be 172 nM at human SERT, 2 nM on human H3 receptor [2] and 22 nM on Rat SERT. Also, the Kb on human H3 receptor [1] (read-out: pA2 (converted)) is 2.19 nM.
`CN(C)CCC(Cc1ccccc1)c1ccc(OCCCN2CCCCC2)cc1` (stereo not drawn) [Example 65, Dimethyl-{4-phenyl-3-[4-(3-piperidin-1-yl-propoxy)-phenyl]-butyl}-amine]: the Ki at human SERT came out at 14 nM; at human H3 receptor [2] it was 0.8 nM; at Rat SERT, 1 nM. Further, the Kb at human H3 receptor [1] (read-out: pA2 (converted)) is 0.251 nM.
The corresponding values for `CN(C)CCC(Nc1ccccc1)c1ccc(OCCCN2CCCCC2)cc1` (stereo not drawn) [Example 66, N^3,N^3-Dimethyl-N^1-phenyl-1-[4-(3-piperidin-1-yl-propoxy)-phenyl]-propane-1,3-diamine] are 151 nM, 3 nM, 15 nM and 3.98 nM.
Consider `CN(C)CCC(Sc1ccccc1)c1ccc(OCCCN2CCCCC2)cc1` (stereo not drawn) [Example 67, Dimethyl-{3-phenylsulfanyl-3-[4-(3-piperidin-1-yl-propoxy)phenyl]-propyl}-amine], for which the Ki on human SERT was 53 nM; at human H3 receptor [2], 0.6 nM; at Rat SERT, 4 nM. Moreover, the Kb at human H3 receptor [1] (read-out: pA2 (converted)) is 0.631 nM.
Turning to `NCCC(Oc1ccc(C(F)(F)F)cc1)c1ccc(OCCCN2CCCCC2)cc1` (stereo not drawn) [Example 69, 3-[4-(3-Piperidin-1-yl-propoxy)-phenyl]-3-(4-trifluoromethylphenoxy)-propylamine], the Ki was 1 nM at human SERT, 8 nM at human H3 receptor [2] and 5 nM on Rat SERT. In addition, on human H3 receptor [1] (read-out: pA2 (converted)), the Kb is 7.94 nM.
In the case of `CNCCC(Oc1ccc(C(F)(F)F)cc1)c1ccc(OCCCN2CCCCC2)cc1` (stereo not drawn) [Example 70, Methyl-[3-[4-(3-piperidin-1-yl-propoxy)-phenyl]-3-(4-trifluoromethyl-phenoxy)-propyl]-amine], the Ki on human SERT came out at 2 nM; on human H3 receptor [2] it was 1 nM; at Rat SERT, 3 nM. On human H3 receptor [1], this compound had a Kb of 3.98 nM.
`CNCCC(Oc1ccc(Cl)c(Cl)c1)c1ccc(OCCCN2CCCCC2)cc1` (stereo not drawn) [Example 71, {3-(3,4-Dichloro-phenoxy)-3-[4-(3-piperidin-1-yl-propoxy)-phenyl]-propyl}-methyl-amine]: the inhibition constant Ki on human SERT came out at 0.8 nM; on human H3 receptor [2], 2 nM; at Rat SERT, 3 nM. The Kb at human H3 receptor [1] (read-out: pA2 (converted)) was 10.5 nM.
